IC50 data for 51 compounds are collected here from patent publication US20210130473A1, “TGFßR1 INHIBITOR-ASGR ANTIBODY CONJUGATES AND USES THEREOF” (Silverback Therapeutics, Inc., priority 2019, published 2021).

The target of one assay is T1, ALK5 (Homo sapiens, UniProt P36897).
T1 construct: purchased Reaction Biology Corp (Malvern, Pa.)
T1 sequence (P36897 34-503): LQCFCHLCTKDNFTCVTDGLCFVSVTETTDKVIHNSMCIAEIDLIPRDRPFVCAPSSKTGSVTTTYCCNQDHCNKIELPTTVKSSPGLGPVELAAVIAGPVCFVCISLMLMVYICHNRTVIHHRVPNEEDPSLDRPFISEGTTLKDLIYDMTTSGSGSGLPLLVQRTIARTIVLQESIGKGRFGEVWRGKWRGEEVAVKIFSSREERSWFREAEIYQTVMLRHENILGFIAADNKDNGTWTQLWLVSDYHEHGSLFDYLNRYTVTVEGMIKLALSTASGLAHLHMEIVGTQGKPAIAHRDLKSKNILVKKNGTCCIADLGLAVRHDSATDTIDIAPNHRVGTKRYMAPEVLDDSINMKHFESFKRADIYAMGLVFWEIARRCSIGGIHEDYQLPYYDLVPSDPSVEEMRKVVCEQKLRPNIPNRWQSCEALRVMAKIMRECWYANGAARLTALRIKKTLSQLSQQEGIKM
Put plainly: ALK5 enzyme inhibition assay (casein substrate, 10 uM ATP, 33P-ATP, filter-binding; Reaction Biology Corp). Type of assay: biochemical. The procedure:
ALK5 enzyme inhibition assays were performed by Reaction Biology Corp (Malvern, Pa.). 1 mg/mL of peptide substrate (casein) and 10 uM ATP were prepared in a mixture of fresh reaction buffer. The kinase was delivered into the substrate solution which was gently mixed. Compounds in 100% DMSO were added to the kinase reaction mixture by Acoustic technology (Echo550; nanoliter range) and the mixture was incubated for 20 min at room temperature. ^33P-ATP (Specific activity 10 uCi/uL) was added into the reaction mixture to initiate the reaction and the reaction mixture was incubated for 2 hours at room temperature. Radioactivity was detected by filter-binding method and kinase activity data were expressed as the percent remaining kinase activity in test samples compared to vehicle (dimethyl sulfoxide) reactions. IC50 values and curve fits were obtained using Prism (GraphPad Software).

Assay [1] deals with TGFβ/SMAD Signaling Pathway SBE reporter cell line. Nature of the assay: TGFb reporter assay in HEK293 SBE-LUC reporter cells (luciferase). The assay is classed as cell-based. The following applies: Homo sapiens, key of the table says IC50, read-out: EC50 (the source's name). The procedure: TGFβ/SMAD Signaling Pathway SBE reporter cell line was obtained from BPS Bioscience. Cells are passed, expanded, and stored in liquid nitrogen as per the supplier's instructions with the exception that growth media is changed to DMEM-C with Geneticin (DMEM supplemented with 10% fetal bovine serum, 1×NEAA, 1 mM Pyruvate, 2 mM glutamine, 50 μg/mL penicillin, 50 U/mL streptomycin and 400 μg/mL of Geneticin). The assay media is MEM supplemented with 0.5% fetal bovine serum, 1×NEAA, 1 mM Pyruvate, 50 μg/mL penicillin and 50 U/mL streptomycin.
Compounds are assayed to measure their activity as ALK5 inhibitors.
The HEK293 SBE-LUC reporter cells from Example 15 were grown in DMEM-C with Geneticin (DMEM supplemented with […], 1×NEAA, 1 mM Pyruvate, 2 mM glutamine, 50 μg/mL penicillin, 50 U/mL streptomycin and 400 ug/mL of Geneticin). The assay media was MEM supplemented with 0.5% fetal bovine serum, 1×NEAA, 1 mM Pyruvate, 50 μg/mL penicillin and 50 U/mL streptomycin.
The HEK293 SBE-LUC reporter cells were harvested from the tissue culture flasks by incubation in small quantity of Versene at room temperature for three to five minutes after the media in the flask is removed and cells rinsed with PBS. Cells were counted and diluted in the assay media at ˜0.8×10^6 cells/mL then 50 uL/well were added to 96-well assay plate. Test samples (at desired concentrations diluted in assay media) were added to assay plate containing the 50 uL/well of cells (or media only), 50 uL per well, and incubated for 5-6 hours at 37° C. in a 5% CO2 humidified incubator. After that time, 15 uL of TGFb diluted to 12.5 ng/mL in the assay media was added to the plate. Controls included TGFb titration (from 25 to 0 ng/mL) without inhibitors, and media only (without cells, inhibitor or TGFb). Plates were incubated at 37° C. in a 5% CO2 humidified incubator for 18h. Luciferase substrate solution was subsequently added at 75 uL per well, incubated in dark with shaking at room temperature for 10 min, and luminescence was measured using a luminometer.
On the technique in general: In a reporter assay the amount or activity of a reporter protein is the signal.

Turning to `Cc1cccc(-c2nc(CNCc3ccccc3)[nH]c2-c2ccc3ncnn3c2)n1` [Compound 1, 1-(5-([1,2,4]triazolo[1,5-a]pyridin-6-yl)-4-(6-methylpyridin-2-yl)-1H-imidazol-2-yl)-N-benzylmethanamine], the figures for the IC50 (on ALK5 (Table 11); in assay [1]) were 0.1 to 1 µM and 0.0001 to 0.01 µM, respectively. As for `Cc1cccc(-c2nc(CNc3ccc4c(c3)CNCC4)[nH]c2-c2ccc3ncnn3c2)n1` [Compound 1.1], in assay [1], the IC50 lay within 0.1 to 1 µM. Still for that read-out and setting: for `Cc1cccc(-c2nc(CNc3ccc4c(c3)CCNC4)[nH]c2-c2ccc3ncnn3c2)n1` [Compound 1.2] the value was 0.1 to 1 µM.

With `Cc1cccc(-c2nc(CNc3cccc4c3CNCC4)[nH]c2-c2ccc3ncnn3c2)n1` [Compound 1.3], in assay [1], the IC50 lay in the range of 0.1 to 1 µM. On the same count and under the same terms, for `Cc1cccc(-c2nc(CNc3cccc4c3CCNC4)[nH]c2-c2ccc3ncnn3c2)n1` [Compound 1.4] the value was 0.1 to 1 µM. As for `Cc1cccc(-c2nc(CNc3ccc4c(c3)CCC4N)[nH]c2-c2ccc3ncnn3c2)n1` (stereo not shown) [Compound 1.5], the IC50 (on ALK5 (Table 12); in assay [1]) was 0.1 to 1 µM in each case.

For the compound `Cc1cccc(-c2nc(CNc3cccc4c3CCC4N)[nH]c2-c2ccc3ncnn3c2)n1` (stereo not shown) [Compound 1.6], the IC50 (on ALK5 (Table 12); in assay [1]) was 0.1 to 1 µM in each case. Turning to `Cc1cccc(-c2nc(CNC3CC3)[nH]c2-c2ccc3ncnn3c2)n1` [Compound 1.7], the IC50 in assay [1] lay within 0.1 to 1 µM. The same measure, in the same setting: for `Cc1cccc(-c2nc(CNCC3CC3)[nH]c2-c2ccc3ncnn3c2)n1` [Compound 1.8] the value was 0.1 to 1 µM.

Consider `Cc1cccc(-c2nc(CNC34CC(C3)C4)[nH]c2-c2ccc3ncnn3c2)n1` [Compound 1.9], for which the values for the IC50 (at ALK5 (Table 12); in assay [1]) were 1 to 10 µM and 0.01 to 0.1 µM, respectively. As for `Cc1cccc(-c2nc(CNC3CCC3)[nH]c2-c2ccc3ncnn3c2)n1` [Compound 1.10], the IC50 in assay [1] fell in the range of 0.1 to 1 µM. The same measure, in the same setting: for `Cc1cccc(-c2nc(CNC3CCCC3)[nH]c2-c2ccc3ncnn3c2)n1` [Compound 1.11] the value was 0.01 to 0.1 µM; for `Cc1cccc(-c2nc(CNC3CCCCC3)[nH]c2-c2ccc3ncnn3c2)n1` [Compound 1.12], 0.01 to 0.1 µM; for `Cc1cccc(-c2nc(CNC3CCCCCC3)[nH]c2-c2ccc3ncnn3c2)n1` [Compound 1.13], 0.01 to 0.1 µM. Take `Cc1cccc(-c2nc(CNC3CCOCC3)[nH]c2-c2ccc3ncnn3c2)n1` [Compound 1.14]: in assay [1], the IC50 is 0.01 to 0.1 µM. The same measure, in the same setting: for `Cc1cccc(-c2nc(CNc3cncc(CN)c3)[nH]c2-c2ccc3ncnn3c2)n1` [Compound 1.19] the value was 0.1 to 1 µM. On the same count and under the same terms, for `Cc1cccc(-c2nc(CNC3CCc4ccccc43)[nH]c2-c2ccc3ncnn3c2)n1` (stereo not shown) [Compound 1.26] the value was 0.01 to 0.1 µM; for `Cc1cccc(-c2nc(CNC3Cc4ccccc4C3)[nH]c2-c2ccc3ncnn3c2)n1` [Compound 1.27], 0.01 to 0.1 µM; for `Cc1cccc(-c2nc(CN3CCCCC3)[nH]c2-c2ccn3ncnc3c2)n1` [Compound 1.35], 0.1 to 1 µM. Consider `Cc1cccc(-c2nc(CNC3CCCNC3)[nH]c2-c2ccn3ncnc3c2)n1` (stereo not shown) [Compound 1.38], for which the IC50 in assay [1] lay in the range of 1 to 10 µM. On the same count and under the same terms, for `Cc1cccc(-c2nc(CNC3CCNCC3)[nH]c2-c2ccn3ncnc3c2)n1` [Compound 1.39] the value was 1 to 10 µM. Take `Cc1cccc(-c2nc(CN3CCc4ccccc4C3)[nH]c2-c2ccn3ncnc3c2)n1` [Compound 1.40]: in assay [1], the IC50 lay within 0.1 to 1 µM.

`Cc1cccc(-c2nc(CNCc3ccc4c(c3)OCO4)[nH]c2-c2ccc3ncnn3c2)n1` [Compound 1.41]: the IC50 in assay [1] fell in the range of 0.1 to 1 µM. The same measure, in the same setting: for `Cc1cccc(-c2nc(CNCC3CCCCC3)[nH]c2-c2ccc3ncnn3c2)n1` [Compound 1.42] the value was 0.01 to 0.1 µM; for `Cc1cccc(-c2nc(CN[C@H]3c4ccccc4C[C@H]3O)[nH]c2-c2ccc3ncnn3c2)n1` [Compound 1.43], 0.01 to 0.1 µM.

Consider `Cc1cccc(-c2nc(CN[C@@H]3c4ccccc4C[C@@H]3O)[nH]c2-c2ccc3ncnn3c2)n1` [Compound 1.44], for which, in assay [1], the IC50 fell in the range of 0.01 to 0.1 µM.

In the case of `Cc1cccc(-c2nc(CN[C@H]3c4ccccc4C[C@@H]3O)[nH]c2-c2ccc3ncnn3c2)n1` [Compound 1.45], in assay [1], the IC50 lay within 0.01 to 0.1 µM. The same measure, in the same setting: for `Cc1cccc(-c2nc(CN[C@@H]3c4ccccc4C[C@H]3O)[nH]c2-c2ccc3ncnn3c2)n1` [Compound 1.46] the value was 0.01 to 0.1 µM; for `Cc1cccc(-c2nc(C3CCCCN3)[nH]c2-c2ccc3ncnn3c2)n1` (stereo not shown) [Compound 1.49], 0.1 to 1 µM. With `Cc1cccc(-c2nc(C3CCNC3)[nH]c2-c2ccc3ncnn3c2)n1` (stereo not shown) [Compound 1.50], the IC50 in assay [1] is 0.1 to 1 µM. Same read-out and setting: for `Cc1cccc(-c2nc(C3CNC3)[nH]c2-c2ccc3ncnn3c2)n1` [Compound 1.53] the value was 1 to 10 µM; for `Cc1cccc(-c2nc(CN3Cc4ccccc4C3=O)[nH]c2-c2ccc3ncnn3c2)n1` [Compound 1.56], 0.01 to 0.1 µM.

With `Cc1cccc(-c2nc(CNCc3cccc4ccccc34)[nH]c2-c2ccc3ncnn3c2)n1` [Compound 1.57], in assay [1], the IC50 was 0.01 to 0.1 µM. The same measure, in the same setting: for `Cc1cccc(-c2nc(CNCc3ccc4ccccc4c3)[nH]c2-c2ccc3ncnn3c2)n1` [Compound 1.58] the value was 0.1 to 1 µM. Still for that read-out and setting: for `Cc1cccc(-c2nc(CNCCc3cccc4ccccc34)[nH]c2-c2ccc3ncnn3c2)n1` [Compound 1.59] the value was 0.01 to 0.1 µM.

In the case of `Cc1cccc(-c2nc(CNCCc3ccnc4ccccc34)[nH]c2-c2ccc3ncnn3c2)n1` [Compound 1.60], the IC50 in assay [1] lay in the range of 0.01 to 0.1 µM.

As to `Cc1cccc(-c2nc(CNCCc3cccc4ncccc34)[nH]c2-c2ccc3ncnn3c2)n1` [Compound 1.61], the IC50 in assay [1] fell in the range of 0.01 to 0.1 µM. With `Cc1cccc(-c2nc(CNCc3ccccc3Oc3ccncc3)[nH]c2-c2ccc3ncnn3c2)n1` [Compound 55], the IC50 in assay [1] was 1 to 10 µM.

As for `Cc1cccc(-c2nc(CNCc3cccc(Oc4ccccc4)c3)[nH]c2-c2ccc3ncnn3c2)n1` [Compound 56], in assay [1], the IC50 was in the range of 0.01 to 0.1 µM. For the compound `Cc1cccc(-c2nc(CNCc3cccc(Oc4cccnc4)c3)[nH]c2-c2ccc3ncnn3c2)n1` [Compound 57], in assay [1], the IC50 was in the range of 0.01 to 0.1 µM. Turning to `Cc1cccc(-c2nc(CNCc3cccc(Oc4ccncc4)c3)[nH]c2-c2ccc3ncnn3c2)n1` [Compound 58], the IC50 in assay [1] is 0.01 to 0.1 µM. On the same count and under the same terms, for `Cc1cccc(-c2nc(CNCc3ccccc3-c3ccccc3)[nH]c2-c2ccc3nccnc3c2)n1` [Compound 72] the value was 0.01 to 0.1 µM; for `Cc1cccc(-c2nc(CNCc3ccccc3)[nH]c2-c2ccc3ncccc3n2)n1` [Compound 73], 0.1 to 1 µM. Consider `Cc1cccc(-c2nc(CNCc3ccccc3)[nH]c2-c2ccnc3ccccc23)n1` [Compound 74], for which the IC50 in assay [1] fell in the range of 0.1 to 1 µM. Same read-out and setting: for `Cc1cccc(-c2nc(CNCc3ccccc3)[nH]c2-c2ccccn2)n1` [Compound 75] the value was 0.1 to 1 µM; for `Cc1cccc(-c2nc(CNCc3ccccc3)[nH]c2-c2ccc3c(c2)OCO3)n1` [Compound 76], 0.01 to 0.1 µM. Turning to `Cc1cccc(-c2nc(CNCc3ccccc3)[nH]c2-c2ccc3nccnc3c2)n1` [Compound 77], the IC50 in assay [1] lay within 0.0001 to 0.01 µM. Same read-out and setting: for `Cc1cccc(-c2nc(CNCCc3c(F)cccc3F)[nH]c2-c2ccc3ncccc3n2)n1` [Compound 78] the value was 0.0001 to 0.01 µM.

Turning to `Cc1cccc(-c2nc(CNCCc3c(F)cccc3F)[nH]c2-c2ccnc3ccccc23)n1` [Compound 79], the IC50 in assay [1] is 0.1 to 1 µM. Consider `Cc1cccc(-c2nc(CNCCc3c(F)cccc3F)[nH]c2-c2ccncc2)n1` [Compound 80], for which the IC50 in assay [1] fell in the range of 0.1 to 1 µM. In turn, `Cc1cccc(-c2nc(CNCCc3c(F)cccc3F)[nH]c2-c2ccc3ncccc3c2)n1` [Compound 89] gave an IC50 at ALK5 (Table 11) of 0.0001 to 0.05 µM.
